Data reported in US20110064833A1, “SYNERGISTIC HERBAL COMPOSITION AND PROCESS OF PREPARATION THEREOF” (priority 2007, published 2011).

Test system: streptozotocin diabetic rats
Assay: In-vivo efficacy screening in streptozotocin diabetic Sprague Dawley rats, 35 days oral gavage
Description: The number of animals per dose group is five and is kept for examination and acclimatization for a week period at the start of the study. The total number of dose groups is six along with vehicle control. The different groups are G1-Vehicle control, G2-Diabetic control, G-3 Diabetic animals treated with Pioglitazone (Standard anti-diabetic drug). […] Blood is collection under CO2 anesthesia by retro orbital (ROP) plexus method and FBG analysis. Rats are fed with 5% glucose water for two days before STZ injection and are fasted for 12 hours before administering streptozotocin. The rats are injected intra-peritoneal with 45 mg/kg-body weight of streptozotocin in a citrate buffer ph: 4.5 and allowed for week recovery. Rats are fasted for 12 hours after 7th day of STZ injection and blood collected in heparin as the anti-coagulant, under CO2 anesthesia and analyzed for FBG. Rats that have the range of FBG beyond 250 mg/dl and above are considered for the study.
Selection, randomization and grouping of the animals into different treatment groups with the FBG range of 250 mg/dl is undertaken as above. […] The dosage volume administered to individual rat was adjusted according to its most recently recorded body weights. […] All signs of ill health, together with any behavioral changes or reaction to treatment are recorded for individual animals. […]

| SMILES | increase in fasting blood glucose from baseline at the end of 35 days (glebenclamide, dose not stated) | increase in fasting blood glucose from baseline at the end of 35 days (pioglitazone 20 mg/kg-body weight) |
| --- | --- | --- |
| COc1ccc(Cl)cc1C(=O)NCCc1ccc(S(=O)(=O)NC(=O)NC2CCCCC2)cc1 [glebenclamide] | about 110% | – |
| CCc1ccc(CCOc2ccc(CC3SC(=O)NC3=O)cc2)nc1 (centres unmarked) [pioglitazone] | – | about 98% |
